This series relates to human PKK mRNA. The series is described as follows: Antisense inhibition of human PKK mRNA in HepaRG cells, 5,000 nM (Example 2). Type of series: cell-based. The method, boiled down: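 HepaRG cells (20,000/well) electroporated with 5,000 nM MOE gapmer (phosphorothioate backbone, 5-methylcytosines) and harvested after ~24 h. PKK mRNA measured by qRT-PCR with primer probe set RTS3454, normalized to RIBOGREEN total RNA; percent inhibition versus untreated cells.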

[1] abbreviates: HepaRG cells, electroporation with 5,000 nM antisense oligonucleotide, approximately 24 hours, PKK mRNA by RT-PCR (RTS3454), relative to untreated control cells, Table 5 experiment.
Where [2] appears, read: Table 7, HepaRG cells, electroporation with 5,000 nM antisense oligonucleotide, approx. 24 hours, PKK mRNA by RT-PCR (RTS3454), relative to untreated control cells.
Where [3] appears, read: HepaRG cells, 5,000 nM antisense oligonucleotide, 5-10-5 gapmers, Table 16.
The mark [4] stands for this setting: HepaRG cells, electroporation, 5,000 nM antisense oligonucleotide, approx. 24 hours, primer probe set RTS3454, relative to untreated control cells, Table 11.
The mark [5] stands for this setting: Table 8, HepaRG cells, electroporation with 5,000 nM antisense oligonucleotide, approx. 24 hours, PKK mRNA by RT-PCR (RTS3454), relative to untreated control cells.
The mark [6] stands for this setting: human PKK mRNA in HepaRG cells, 5-10-5 gapmers, Table 14.
Setting [7] is: human PKK mRNA, HepaRG cells, 5-10-5 motif oligonucleotides targeting SEQ ID NO: 1 and 10.
[8] abbreviates: HepaRG cells, electroporation, 5,000 nM antisense oligonucleotide, approx. 24 hours, primer probe set RTS3454, relative to untreated control cells, Table 12.

Strand notation (5' to 3'): a small letter for the sugar, then the base; units joined by * are phosphorothioate-linked, units joined directly phosphodiester-linked; [ ] holds rarer units or linkages, { } end groups; capitals alone tell only the bases. e = 2'-O-(2-methoxyethyl) (MOE); [5mC] = 5-methylcytosine; d = 2'-deoxy (DNA)

The % inhibition is how much of the control response was suppressed. Regarding “546149 (e[5mC]*e[5mC]*e[5mC]*e[5mC]*eA*d[5mC]*d[5mC]*dT*d[5mC]*dT*dG*dA*dA*dG*dA*eA*eG*eG*e[5mC]*eG; antisense) [compound 546149]”, the “% inhibition” value under setting [1] was 83%.

“546244 (eT*eA*eA*eA*eT*dT*dT*dT*dA*dG*dA*dA*dT*dG*dG*e[5mC]*eA*eG*eG*eG; antisense) [compound 546244]”: the “% inhibition” value under setting [2] amounted to 27%.

As to “546153 (eG*eG*eG*eT*eG*dT*dA*d[5mC]*dA*dT*dG*dG*dA*dA*dG*e[5mC]*eT*eA*e[5mC]*eA; antisense) [compound 546153]”, the “% inhibition” value under setting [1] came out at 76%.

On to “547683 (antisense eA*e[5mC]*eT*eA*eT*dA*dT*d[5mC]*dA*d[5mC]*dT*dG*dT*d[5mC]*d[5mC]*eT*eA*eT*eA*eA) [compound 547683]”, for which, under setting [3], the “% inhibition” value is 33%.

Take “547516 (antisense eG*eA*eT*eG*e[5mC]*dA*dA*dA*dG*dA*dA*dG*dA*dT*dG*e[5mC]*e[5mC]*eA*e[5mC]*eT) [compound 547516]”: the “% inhibition” value under setting [4] was determined as 48%.

On to “546296 (antisense eG*eA*eA*eG*e[5mC]*d[5mC]*d[5mC]*dA*dT*d[5mC]*dA*dA*dA*dG*d[5mC]*eA*eG*eT*eG*eG) [compound 546296]”, for which the “% inhibition” value under setting [5] stood at 27%.

Consider “547560 (eG*eA*e[5mC]*eG*eG*dT*d[5mC]*dA*d[5mC]*d[5mC]*d[5mC]*dA*dG*d[5mC]*d[5mC]*e[5mC]*eT*eG*eA*e[5mC]; antisense) [compound 547560]”, for which, for the setting “Table 13, human PKK mRNA in HepaRG cells, 5-10-5 gapmers”, the “% inhibition” value is 42%.

Take “546387 (eA*eG*e[5mC]*eG*eG*dG*d[5mC]*dT*dT*d[5mC]*dA*dG*d[5mC]*d[5mC]*dA*eG*eA*e[5mC]*eA*eT; antisense) [compound 546387]”: the “% inhibition” value under setting [4] is on record as 77%.

For “546864 (eA*eT*eA*eA*e[5mC]*dT*dA*dT*dA*dA*d[5mC]*dA*dA*dT*dA*eT*e[5mC]*eA*e[5mC]*eT; antisense) [compound 546864]”, the “% inhibition” value under setting [6] was determined as 0%.

For “547365 (eT*eG*eA*eG*eA*dA*d[5mC]*d[5mC]*d[5mC]*dT*dG*dG*d[5mC]*dA*dA*e[5mC]*eA*eT*e[5mC]*e[5mC]; antisense) [compound 547365]”, the “% inhibition” value under setting [2] turned out to be 81%.

On to “547645 (eA*eT*eA*eT*e[5mC]*dA*d[5mC]*dT*dG*dT*d[5mC]*d[5mC]*dT*dA*dT*eA*eA*e[5mC]*eT*eA; antisense) [compound 547645]”, for which the “% inhibition” value under setting [7] came to 60%.

Take “547535 (antisense eA*eG*eA*e[5mC]*eA*dG*d[5mC]*d[5mC]*d[5mC]*dA*d[5mC]*d[5mC]*dA*dA*d[5mC]*eA*eA*eT*e[5mC]*eT) [compound 547535]”: under setting [8], the “% inhibition” value turned out to be 28%.

Turning to “547427 (eA*eA*eG*eA*eG*dT*dA*dA*d[5mC]*d[5mC]*dA*dG*dA*dG*d[5mC]*eT*e[5mC]*e[5mC]*e[5mC]*eT; antisense) [compound 547427]”, the “% inhibition” value under setting [5] is given as 79%.

For “546380 (antisense eG*e[5mC]*e[5mC]*eA*e[5mC]*dT*d[5mC]*dT*d[5mC]*d[5mC]*dA*dT*dG*d[5mC]*dT*eT*eT*eG*e[5mC]*eA) [compound 546380]”, under setting [4], the “% inhibition” value stood at 81%.

For “546382 (antisense e[5mC]*eA*eA*eA*eG*dA*dA*dG*dA*dT*dG*d[5mC]*d[5mC]*dA*d[5mC]*eT*e[5mC]*eT*e[5mC]*e[5mC]) [compound 546382]”, under setting [4], the “% inhibition” value was found to be 58%.

Turning to “547536 (antisense eT*eG*e[5mC]*eA*eT*dA*dG*dA*d[5mC]*d[5mC]*d[5mC]*d[5mC]*dA*dA*d[5mC]*eA*eG*eA*e[5mC]*eA) [compound 547536]”, under setting [8], the “% inhibition” value is on record as 48%.

For “547708 (antisense eG*e[5mC]*e[5mC]*eA*eG*dG*dA*dG*dA*d[5mC]*dA*dG*d[5mC]*d[5mC]*d[5mC]*eT*eA*e[5mC]*eT*e[5mC]) [compound 547708]”, the “% inhibition” value under setting [3] is on record as 67%.

Consider “547399 (eG*e[5mC]*eA*eG*eG*dG*dT*dT*d[5mC]*dA*dG*dG*dT*dA*dA*eA*eG*eT*eT*e[5mC]; antisense) [compound 547399]”, for which, under setting [2], the “% inhibition” value amounted to 10%.

On to “546684 (eT*eA*e[5mC]*eT*e[5mC]*dT*d[5mC]*dT*dA*d[5mC]*dA*dT*dA*d[5mC]*dT*e[5mC]*eA*eG*eG*eA; antisense) [compound 546684]”, for which the “% inhibition” value under setting [8] was found to be 71%.

As to “546892 (eA*e[5mC]*eT*eG*eT*d[5mC]*d[5mC]*dT*dA*dT*dG*dT*d[5mC]*dA*d[5mC]*eT*eG*eT*eA*e[5mC]; antisense) [compound 546892]”, the “% inhibition” value under setting [7] turned out to be 82%.

Consider “547278 (antisense eA*e[5mC]*eA*e[5mC]*eA*dA*dT*dT*dG*d[5mC]*dT*dT*d[5mC]*dT*dT*eG*eG*eA*eG*eG) [compound 547278]”, for which the “% inhibition” value under setting [1] was determined as 70%.

“547325 (antisense eG*eA*e[5mC]*e[5mC]*eA*d[5mC]*dA*dT*dT*dG*d[5mC]*dT*dT*d[5mC]*dA*eA*eG*eG*eA*eA) [compound 547325]”: the “% inhibition” value (HepaRG cells, electroporation with 5,000 nM antisense oligonucleotide, approximately 24 hours, PKK mRNA by RT-PCR (RTS3454), relative to untreated control cells, Table 6 experiment) is listed as 67%.

In the case of “547589 (eT*eA*eA*e[5mC]*eT*dA*dT*dA*dA*d[5mC]*dA*dG*dT*dA*dT*e[5mC]*eA*e[5mC]*eT*eG; antisense) [compound 547589]”, the “% inhibition” value under setting [6] is 36%.

As for “546160 (eA*e[5mC]*eT*eG*eA*dA*dT*dA*dG*d[5mC]*dA*dA*dA*d[5mC]*dA*e[5mC]*e[5mC]*eT*eT*eG; antisense) [compound 546160]”, the “% inhibition” value under setting [1] is listed as 78%.

Consider “547505 (antisense eG*eA*e[5mC]*eT*eT*dG*dA*dA*d[5mC]*dT*d[5mC]*dA*dG*dG*dT*eT*eG*eT*eA*eA) [compound 547505]”, for which the “% inhibition” value under setting [4] worked out at 69%.

“546270 (eA*e[5mC]*eA*e[5mC]*eT*dT*dA*d[5mC]*dA*d[5mC]*dT*dT*d[5mC]*dT*d[5mC]*eT*eT*e[5mC]*e[5mC]*eT; antisense) [compound 546270]”: under setting [5], the “% inhibition” value was 32%.

For “547756 (antisense eG*eG*eG*eT*e[5mC]*dT*dT*dG*d[5mC]*dT*d[5mC]*d[5mC]*dA*d[5mC]*d[5mC]*e[5mC]*eA*e[5mC]*eA*eT) [compound 547756]”, the “% inhibition” value (HepaRG cells, 5,000 nM antisense oligonucleotide, 5-10-5 gapmers, Table 17) is 49%.

On to “547586 (eT*eA*eT*eA*eA*d[5mC]*dA*dG*dT*dA*dT*d[5mC]*dA*d[5mC]*dT*eG*eT*e[5mC]*e[5mC]*eT; antisense) [compound 547586]”, for which the “% inhibition” value under setting [6] is 82%.

Take “548740 (DNA eT*eG*eT*eA*d[5mC]*dT*dA*dG*dT*dT*dT*d[5mC]*d[5mC]*eT*eA*eT*eA; antisense) [compound 548740]”: where the note is “human PKK mRNA, HepaRG cells, 5,000 nM antisense oligonucleotide, Table 18”, the “% inhibition” value was 0%.

Consider “547507 (antisense e[5mC]*eA*eG*eG*e[5mC]*dT*d[5mC]*dA*dG*dA*dA*dT*dT*dT*dG*eA*e[5mC]*eT*eT*eG) [compound 547507]”, for which, under setting [4], the “% inhibition” value stood at 56%.

As for “546370 (antisense eA*e[5mC]*eT*eT*eG*dA*dA*d[5mC]*dT*d[5mC]*dA*dG*dG*dT*dT*eG*eT*eA*eA*eA) [compound 546370]”, under setting [4], the “% inhibition” value is given as 34%.

As for “546904 (eT*e[5mC]*e[5mC]*eT*eA*dT*dA*dT*d[5mC]*dA*d[5mC]*dT*dG*dT*dA*e[5mC]*e[5mC]*eT*eA*eT; antisense) [compound 546904]”, under setting [7], the “% inhibition” value is given as 80%.

As for “547388 (eT*eA*eT*eG*eG*dT*dG*dT*dT*dT*dT*d[5mC]*dT*dT*dG*eA*eG*eG*eA*eG; antisense) [compound 547388]”, the “% inhibition” value under setting [2] was found to be 55%.

For the origin of these results see patent US11840686B2, “Modulation of prekallikrein (PKK) expression” (Ionis Pharmaceuticals, Inc., priority 2013, dated 2023).
